Results published in US11247970B2, “Selective inhibition of gluconeogenic activity” (Dana-Farber Cancer Institute, Inc., priority 2017, dated 2022).

Experiments:
HFD fed mice = experiment: Chronic 14 day treatment of HFD mice; type: in vivo
Procedure: FIG. 57 is a plot monitoring body weight over a period of days. Mice fed HFD for 6 weeks were injected daily with SR-18292 for a total of 14 days and body weight was monitored during the treatment.
FIG. 58 is a series of bar graphs monitoring blood glucose. Mice were fasted at day 3 and 13 and fasting blood glucose was measured at day 4 and 14. Fed blood glucose was also measured at day 10. n=10, *P<0.05.
In addition, liver toxicity, as measured by serum levels of alanine transaminase (ALT), aspartate aminotransferase (AST), lactate dehydrogenase (LDH) and bilirubin, was not observed in mice treated with SR-18292 (Table 6). […] To assess the contribution of PGC-1α in mediating the in vivo effects of SR-18292, hepatic PGC-1α in Lep^ob/ob mice was depleted using shRNA and observed a significant reduction in basal blood glucose concentrations compared to control. […] To fully assess the effects of SR-18292 on whole body glucose homeostasis and insulin resistance, a glucose tolerance test (GTT) and insulin tolerance test (ITT) were performed following the same protocol used to determine fasting blood glucose. […] As expected, insulin levels after GTT were lower in the treated group (FIG. 51). […] To test if SR-18292 chronic treatment will cause similar anti-diabetic effects, mice were treated for a period of 14 days.

[1] = test system: interaction of GCN5 with PGC-1α; experiment: Co-immunoprecipitation of PGC-1α with GCN5 in U-2 OS cells; type: cell-based; settings: endogenous and ectopically expressed GCN5
Procedure: For PGC-1α acetylation detection in hepatocytes cells were infected with Ad-PGC-1α and Ad-GCN5. Cells were collected in RIPA buffer (containing protease inhibitor cocktail, 5 mM NaF, 5 mM β-glycerophosphate, 10 mM nicotinamide, 1 mM DTT and 1 μM trichostatin A). FLAG-HA-PGC-1α was immunoprecipitated overnight at 4° C. with FLAG beads (Sigma A2220). For GCN5 interaction with PGC-1α, U-2 OS cells were infected with Ad-PGC-1α. Nuclear extracts were obtained by lysing cell in Buffer A (10 mM HEPES-KOH (pH 7.9), 10 mM KCl, 1.5 mM MgCl2, 0.5 mM DTT, 0.25% IGEPAL (v/v), 5 mM NaF, 5 mM β-glycerophosphate, 5 mM sodium butyrate and 10 mM nicotinamide), supplemented with Protease Inhibitor Cocktail. Once cytoplasmic fractions were separated, nuclear pellets were lysed in Buffer B (20 mM HEPES-KOH (pH 7.9), 125 mM NaCl, 1 mM EDTA, 1 mM DTT, 1% IGEPAL (v/v), 10% glycerol (v/v), 5 mM NaF, 5 mM β-glycerophosphate, 5 mM sodium butyrate and 10 mM nicotinamide), supplemented with Protease Inhibitor Cocktail. FLAG-HA-PGC-1α was immunoprecipitated with FLAG beads overnight at 4° C. All beads were washed at last 3 times in lysis buffer before eluting in sample loading buffer.

PGC-1α = molecular target: T1, PGC-1α (Mus musculus, UniProt O70343); experiment: Western blot of PGC-1α acetylation in primary hepatocytes; type: cell-based; set-up: expressed in transfected cells; host or cells: primary hepatocytes of C57BL/6 mice infected with Ad-PGC-1α and Ad-GCN5
T1 sequence (O70343 1-797): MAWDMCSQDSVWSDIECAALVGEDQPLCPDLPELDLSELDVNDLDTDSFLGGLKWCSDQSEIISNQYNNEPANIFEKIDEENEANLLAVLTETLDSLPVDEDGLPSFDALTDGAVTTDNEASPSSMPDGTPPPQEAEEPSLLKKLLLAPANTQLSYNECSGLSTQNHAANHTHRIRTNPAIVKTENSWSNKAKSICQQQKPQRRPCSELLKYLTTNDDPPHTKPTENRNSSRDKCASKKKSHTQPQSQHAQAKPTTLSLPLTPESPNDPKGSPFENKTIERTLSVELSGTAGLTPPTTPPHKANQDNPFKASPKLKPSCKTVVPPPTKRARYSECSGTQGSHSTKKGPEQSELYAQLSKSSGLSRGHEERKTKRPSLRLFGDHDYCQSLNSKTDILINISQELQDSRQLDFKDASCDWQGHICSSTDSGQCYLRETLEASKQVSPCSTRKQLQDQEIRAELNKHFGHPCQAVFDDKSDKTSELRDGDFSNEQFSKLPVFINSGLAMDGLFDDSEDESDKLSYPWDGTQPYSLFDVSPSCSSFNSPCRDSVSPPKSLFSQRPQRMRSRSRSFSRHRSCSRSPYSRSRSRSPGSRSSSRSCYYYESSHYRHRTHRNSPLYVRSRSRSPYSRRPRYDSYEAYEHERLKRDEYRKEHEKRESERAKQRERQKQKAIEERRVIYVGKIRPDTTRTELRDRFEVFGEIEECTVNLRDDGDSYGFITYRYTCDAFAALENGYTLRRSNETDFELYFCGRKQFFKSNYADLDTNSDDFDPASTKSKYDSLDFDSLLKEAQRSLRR
Procedure: (§1) For measurement of acetylation, gene expression and glucose production SR-18292 ([…]) was added to cells overnight and fresh compound was added the following day for additional 3 h before collecting the cells (for total of ˜18 h treatment). Where insulin and glucagon stimulation were performed, the medium was changed to starvation medium (DMEM, 0.2% BSA, 2 mM sodium pyruvate, and 1% penicillin/streptomycin) with fresh compound for the last 3 h and cells were stimulated with either 100 nM insulin or 200 nM glucagon for an extra 1.5 h. For glucose measurements following PGC-1α over expression cells were incubated for the last 3 h in glucose-free medium (phenol-red/glucose free DMEM, 0.2% BSA, 2 mM sodium pyruvate and 20 mM sodium lactate or 10 mM glycerol in case glycerol was used as substrate). For glucose measurements following glucagon stimulation cells were incubated for the last 4 h in the same glucose-free medium that also contained glucagon (200 nM). The glucose level in the medium was measured using a glucose assay kit from Eton Bioscience Inc. by adding […] of assay buffer to […] of medium followed by 15 min incubation at 37° C. Absorbance was measured at 490 nm.
For PGC-1α acetylation detection in hepatocytes cells were infected with Ad-PGC-1α and Ad-GCN5. […]

ob/ob mice = experiment: Fasting glycemia and liver lipid in leptin deficient ob/ob mice; type: in vivo; settings: diabetic leptin deficient ob/ob mice
[2] = test system: CREB, TORC2, Akt phosphorylation; experiment: Western blot of glucagon and insulin signaling in hepatocytes; type: cell-based, mouse
Procedure: as §1

Cc1ccc(CN(CC(O)COc2cccc3[nH]ccc23)C(C)(C)C)cc1 (centres unmarked) [SR-18292, 1-((1H-indol-4-yl)oxy)-3-(tert-butyl(4-methylbenzyl)amino)propan-2-ol]
ability to reduce blood glucose (HFD fed mice; 14 days daily treatment): sustained | body weight (HFD fed mice; 14 days daily treatment): without resulting in changes in body weight | toxicity by serum ALT and AST, H&E staining of liver, proinflammatory genes (HFD fed mice; 14 days treatment): did not cause any signs of toxicity | H&E staining of liver slices assessed by pathologist (HFD fed mice; after 14 days, n=10): no sign of toxicity was observed | liver triglycerides and cholesterol levels (HFD fed mice; after 14 days, n=10): not altered | serum ALT and AST levels (HFD fed mice; after 14 days, n=10): not altered | serum lactate, β-hydroxybutyrate and cholesterol levels (HFD fed mice; after 14 days, n=10): not altered | interaction of GCN5 with PGC-1α [1]: increased | PGC-1α acetylation (PGC-1α; primary hepatocytes, Ad-PGC-1α and Ad-GCN5, 18 h): increased PGC-1α acetylation | PGC-1α acetylation in presence of deacetylase inhibitors (PGC-1α; with Ex-527 (SIRT1 inhibitor) and Trichostatin A): increased acetylation of PGC-1α even in the presence of Ex-527 | fasting glycemia (ob/ob mice): improved fasting glycemia | lipid accumulation in liver (ob/ob mice): without altering lipid accumulation in liver | glucagon-induced phosphorylation of CREB and dephosphorylation of CRTC2 ([2]; glucagon 200 nM): without disrupting | cell autonomous enhancement of insulin signaling (Akt S473) ([2]; insulin 100 nM): not observed
